# What was measured:
# [1] = test system: APPswe/PS1ΔE9 transgenic mice; assay: Histology of AD transgenic mice (Aβ plaque, PSD-95, SV2A); type: in vivo, mouse; conditions: for synapse density (PSD-95, SV2A) in dentate gyrus: 5 weeks
# Description: FIGS. 10A-10C illustrate the finding that synaptic markers recover after treatment with a Fyn inhibitor. […] FIG. 10A: Representative sections from the labeled groups were stained with anti-PSD-95 antibody and the molecular layer of the dentate gyrus was imaged with a confocal microscope with a 60× objective lens. Scale bar, 3 μm. FIG. 10B: Fractional area of immunoreactive puncta for PSD-95. p<0.05, ANOVA with post-hoc pairwise Tukey comparisons. Mean±SEM, n=5-10 mice per group, two images per mouse. FIG. 10C: Fractional area of immunoreactive puncta for SV2. p<0.05, ANOVA with post-hoc pairwise Fisher's least significant difference (LSD). Mean±SEM, n=5-10 mice per group, two images per mouse.
# The animals were familiarized with two objects on the first day of testing, and then observed on the next day with one novel object and one familiar object. The time spent exploring each object was scored by an observed unaware of drug treatment (FIG. 5). WT mice spend more time with the novel object. However, vehicle-treated APPswe/PS1ΔE9 mice spent equal time with both objects, consistent with impaired memory of familiarization on the previous day. […] The tissue from these mice is analyzed histologically, e.g., for Aβ plaque and synaptic markers (which are reduced in the transgenic mice). […] Without wishing to be limited by theory, this finding is consistent with the fact that saracatinib blocks the downstream action of Aβo on neurons, but not the upstream production of Aβ.
# Upon analysis of a post-synaptic marker (PSD-95) or a presynaptic marker (SV2A) in the dentate gyrus of the hippocampus, an saracatinib-induced restoration of synapse density was observed. The twelve-month old transgenic mice have lost approximately 30-40% of synapses by the immunohistological measures.
# [2] = Dog toxicology studies (6 month and nine-month); type: in vivo
# Description: The body weight of dogs treated with different doses of saracatinib was plotted as a function of time. There were a […] (4 female and 4 male in each group), but a single sex (male) is shown here because the weight range is different between sexes. The trend for female dogs is similar but not shown. Values are mean±sem.
# [3] = test system: subjects with mild to moderate AD; assay: Phase Ib multiple ascending dose study, safety and tolerability; type: in vivo; conditions: human, 50, 100 or 125 mg PO daily
# Description: Subjects were enrolled in three cohorts of 8 subjects each.
# [4] = test system: Fyn (p-SFK) and eEF2 phosphorylation in cortical neurons; assay: Aβo-induced Fyn activation and eEF2 phosphorylation in cortical neurons (immunoblot); type: cell-based, mouse
# Protocol: FIG. 2A: DIV21 cortical neurons from wild type or Prnp−/− mice were treated with or without Aβo for 5 min. Whole cell lysates were analyzed by anti-phospho-eEF2, anti-eEF2, or anti-PrP^C immunoblot. Aβo increased p-eEF2/eEF2 ratio to 210±20% of baseline in WT cultures (mean±sem, n=3), but there was no significant increase in Prnp−/− cultures. FIG. 2B: DIV21 cortical neurons from wild type mice were treated with the indicated human control or AD brain extracts (30 μg total protein/ml) for 5 min. Whole cell lysates were analyzed by anti-phospho-eEF2 or anti-eEF2 immunoblot. AD, but not control (Con), brain extracts increased p-eEF2/eEF2 ratio to 200±10% of untreated cultures (mean±sem, n=4). FIG. 2C: Wild type cortical neurons were treated with or without Aβo for 15 min. […] Whole cell lysates were analyzed by anti-phospho-SFK, anti-Fyn, anti-phospho-eEF2, or anti-eEF2 immunoblot. GAPDH served as a loading control. FIG. 2D: Quantification of phospho-eEF2 level normalized to eEF2 immunoreactivity from four independent experiments. Mean±sem; *, P<0.05, n.s., not significant; One-way ANOVA, with Tukey post-hoc pairwise comparisons.
# Because spine turnover is dependent on protein translation machinery, and because both Aβo and Fyn have been linked to mGluR5, a downstream effector of mGluR5-regulated protein translation, the eukaryotic elongation factor 2 (eEF2), was considered. The eEF2 pathway is regulated by phosphorylation and is dysregulated in AD. A3o treatment of cortical neurons increases eEF2 phosphorylation at 5 min (FIG. 2A). Genetic analysis confirmed that the Aβo effect on eEF2 phosphorylation depends on PrP^C (FIG. 2A).
# It was tested whether phosphorylation of eEF2 induced by Aβo depends on AZD0530-sensitive Fyn kinase activation. […] Thus, AZD0530 prevented Aβo/PrP-induced, Fyn-dependent neuronal signaling in vitro.
# PS19 mice = assay: Passive avoidance test in PS19 mice; type: in vivo, mouse; conditions: 8-month-old PS19 mice, 6 months of treatment
# Description: FIGS. 11A-11C illustrate that Fyn kinase inhibition prevents memory deficits in P301S Tau transgenic tice. FIG. 11A: Timeline of PS19 mouse treatment. FIG. 11B: Morris water maze probe trial for 8-month-old PS19 or WT mice after 6 months of AZD0530 or Vehicle treatment. Twenty four hours after the reverse learning trials in the Morris water maze, the submerged platform was removed and the fraction of 60 sec spent in the target quadrant where the hidden platform had been located previously was recorded. n=11-15/group, each dot is one mouse. Data are mean±SEM. Dashed line indicates random chance performance. Two-way ANOVA reveal an interaction between genotype and treatment (p=0.014). *p<0.05; Sidak's post-hoc multiple comparisons test. FIG. 11C: Passive avoidance test for 8-month-old PS19 and WT mice after 6 months of treatment with AZD0530 or Vehicle. Latency was measured as the time for the mouse to cross to the opaque box. n=16-18/group. Wilcoxon match-pairs signed test; (WT, Vehicle: p=0.0007; WT, AZD0530: p<0.0001; […]; PS19, AZD0530: p=0.0126.)
# A Passive Avoidance Controller CAT 7551 was used to conduct the passive avoidance test as previously described (Gimbel et al., 2010, J Neurosci 30:6367-6374) with slight modifications. The door delay was set to 90 seconds, and the shock intensity was set to 0.5 mA with a shock duration of 2 seconds. […]
# [5] = saracatinib 1 hour prior to Aβo, Aβo 15 min
compound,measurement,setting,value
"CN1CCN(CCOc2cc(OC3CCOCC3)c3c(Nc4c(Cl)ccc5c4OCO5)ncnc3c2)CC1 [saracatinib, N-(5-chloro-benzo[d][1,3]dioxol-4-yl)-7-(2-(4-methylpiperazin-1-yl)ethoxy)-5-(tetrahydro-2H-pyran-4-yloxy)quinazolin-4-amine]",Aβ plaque content,[1]; APPswe/PS1ΔE9 mice,No significant changes
same,"synapse density (PSD-95, SV2A) in dentate gyrus",[1]; APPswe/PS1ΔE9 mice,restored to WT control levels
same,"synapse density (PSD-95, SV2A) in dentate gyrus",[1]; WT mice,no change
same,body weight,[2]; nine-month study,continued weight gain
same,adverse symptoms,"[2]; nine-month study, 0.5, 2 and 5 mg/kg/d, at 8.75 months",no obvious adverse symptoms
same,hematological changes,[3],no significant hematological changes
same,"serious adverse events, laboratory abnormalities, early terminations",[3],"no apparent study-related serious adverse events (SAEs), significant laboratory abnormalities, or early terminations"
same,basal p-SFK levels,"[4]; cortical neurons, saracatinib 1 hour",suppressed
same,Aβo stimulation of target kinase (p-SFK),[4]; [5],fully prevented
same,Aβo-induced increase of eEF2 phosphorylation,[4]; [5],fully blocked
same,passive avoidance at 24 hours,PS19 mice,exhibited passive avoidance

# Source: US11241434B2, “Compositions and methods for improving cognition in a subject” (Yale University, priority 2013, dated 2022)
